Experimental data taken from article PMC10233844 (ACS Omega, 2023).

Legend:
FAK = details: read-out: FAK inhibitor IC50; cited from earlier work
PC-3 cells [1] = experiment: Cell cycle analysis by PI staining, flow cytometry; format: cell-based, human; details: PC-3, at pre calculated IC50, 48 h
PC-3 cells [2] = experiment: Apoptosis analysis, Annexin V-propidium iodide flow cytometry; format: cell-based, human; details: PC-3, 48 h
[3] = target: thymidylate synthase (TS) (Homo sapiens, UniProt P04818); experiment: In vitro thymidylate synthase enzymatic assay; format: biochemical; details: compared with pemetrexed
Chain of thymidylate synthase (TS) (P04818 whole entry): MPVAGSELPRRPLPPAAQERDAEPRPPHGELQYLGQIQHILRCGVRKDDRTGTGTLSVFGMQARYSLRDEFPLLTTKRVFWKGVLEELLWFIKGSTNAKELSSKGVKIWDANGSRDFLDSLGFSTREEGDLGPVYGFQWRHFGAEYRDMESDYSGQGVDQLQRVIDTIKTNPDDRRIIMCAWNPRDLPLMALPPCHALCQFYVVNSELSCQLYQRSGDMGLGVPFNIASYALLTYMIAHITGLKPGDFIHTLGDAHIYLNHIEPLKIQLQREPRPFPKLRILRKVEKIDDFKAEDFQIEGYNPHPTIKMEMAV

Question: With `N.N.[Cl][Pt][Cl]` [Cisplatin] as the compound, how does the IC50 (FAK) read?
Answer: Its IC50 is 8.6 µM.

Question: Which “percentage of cell population at G1 phase” value (PC-3 cells [1]) does the source give for `C=CCc1ccc(OCc2nn(CN3CCOCC3)c(=S)o2)c(OC)c1` [Compound 17, 5-((4-Allyl-2-methoxyphenoxy)methyl)-3-(morpholinomethyl)-1,3,4-oxadiazole-2(3H)-thione] here?
Answer: The value was 29.30%.

Question: And the “percentage of cell population at G2 phase” value (PC-3 cells [1])?
Answer: The value was 8.61%.

Question: What about the “percentage of cell population at the S phase” value (PC-3 cells [1]) of the same compound?
Answer: The value was 62.07%.

Question: What about the “necrotic cells (R1, % Parent)” value (PC-3 cells [2]) of the same compound?
Answer: The value was 3.56%.

Question: With `C=CCc1ccc(OCc2nn(CN3CCCC3)c(=S)o2)c(OC)c1` [Compound 15, 5-((4-Allyl-2-methoxyphenoxy)methyl)-3-(pyrrolidin-1-ylmethyl)-1,3,4-oxadiazole-2(3H) Thione] as the compound, how does the “TS inhibition in words” value [3] read?
Answer: The value was “comparable TS repression to pemetrexed”.
